Data: patent publication US9433621B2, “Substituted pyridine and pyrimidine derivatives and their use in treating viral infections” (Merck Sharp & Dohme Corp., priority 2010, dated 2016)

Test system: HCV replicon
Assay: Cell-Based HCV Replicon Assay
Conditions: Hepatitis C virus, 72 h; Table V, class codes; replicon cells, day 3, real time PCR; EC90 = concentration for ΔCT=3.2 over baseline; read-out: EC90 (uM) range
Description: Cell-Based HCV Replicon Assay
To measure cell-based anti-HCV activity of the compounds of the present invention, replicon cells were seeded at 5000 cells/well in 96-well collagen I-coated Nunc plates in the presence of the compound of the invention. Various concentrations of a compound of the invention, typically in 10 serial 2-fold dilutions, were added to the assay mixture, the starting concentration of the compound ranging from 25 μM to 1 μM. The final concentration of DMSO was 0.5%, fetal bovine serum was 10%, in the assay media. Cells were harvested on day 3 by the addition of 1× cell lysis buffer (Ambion cat #8721). The replicon RNA level was measured using real time PCR (Taqman assay). The amplicon was located in 5B. The PCR primers were: 5B.2F, ATGGACAGGCGCCCTGA; 5B.2R, […]; the probe sequence was FAM-labeled CACGCCATGCGCTGCGG. GAPDH RNA was used as endogenous control and was amplified in the same reaction as NS5B (multiplex PCR) using primers and VIC-labeled probe recommended by the manufacturer (PE Applied Biosystem). The real-time RT-PCR reactions were run on ABI PRISM® 7900HT Sequence Detection System using the following program: 48′C for 30 min, 95′C for 10 min, 40 cycles of 95′C for 15 sec, 60′C for 1 min. The ΔCT values (CT5B-CTGAPDH) were plotted against the concentration of test compound and fitted to the sigmoid dose-response model using Graph Pad PRISM® software. EC50 was defined as the concentration of inhibitor necessary to achieve ΔCT=1 over the projected baseline; EC90 the concentration necessary to achieve ΔCT=3.2 over the baseline. Alternatively, to quantitate the absolute amount of replicon RNA, a standard curve was established by including serially diluted T7 transcripts of replicon RNA in the Taqman assay. All Taqman reagents were from PE Applied Biosystems. Such an assay procedure was described in detail in e.g. Malcolm et al., Antimicrobial Agents and Chemotherapy 50: 1013-1020 (2006).
HCV Replicon assay data for compounds of the invention that were tested were obtained using the above method.

Row | Compound | EC90
1 | COC[C@@H](C)Nc1ncc(-c2nc3c(C)nccc3s2)c(N[C@@H]2C[C@H](C(C)(C)O)[C@@H](O)[C@H]2O)n1 [Example 4941] | < 0.5 µM
2 | Cc1nc(NCC2CC2)nc(N[C@@H]2C[C@H](CO)[C@@H](O)[C@H]2O)c1-c1nc2cnc(C3CC3)cc2s1 [Example 4942] | < 0.5 µM
3 | COCCNc1nc(C)c(-c2nc3cnc(C4CC4)cc3s2)c(N[C@@H]2C[C@H](CO)[C@@H](O)[C@H]2O)n1 [Example 4943] | < 0.5 µM
4 | Cc1nc(N[C@H](C)c2ccc(OC(F)(F)F)cc2)nc(N[C@@H]2C[C@H](CO)[C@@H](O)[C@H]2O)c1-c1nc2cnc(C3CC3)cc2s1 [Example 4944] | < 0.5 µM
5 | Cc1nc(N)nc(N[C@@H]2C[C@H](CO)[C@@H](O)[C@H]2O)c1-c1nc2cnc(C3CC3)cc2s1 [Example 4945] | < 0.5 µM
6 | COCCNc1nc(C)c(-c2nc3cnc(C)cc3s2)c(N[C@@H]2C[C@H](CO)[C@@H](O)[C@H]2O)n1 [Example 4946] | < 0.5 µM
7 | Cc1nc(N[C@H](C)c2ccc(OC(F)(F)F)cc2)nc(N[C@@H]2C[C@H](C(=O)NC(C)(C)C)[C@@H](O)[C@H]2O)c1-c1nc2c(C3CC3)nccc2s1 [Example 4947] | < 0.5 µM
8 | Cc1nc(N)nc(N[C@@H]2C[C@H](C(=O)Nc3ccccc3)[C@@H](O)[C@H]2O)c1-c1nc2c(C3CC3)nccc2s1 [Example 4948] | < 0.5 µM
9 | COCCNc1nc(C)c(-c2nc3c(C4CC4)nccc3s2)c(N[C@@H]2C[C@H](C(=O)Nc3ccccc3)[C@@H](O)[C@H]2O)n1 [Example 4949] | < 0.5 µM
10 | Cc1nc(NCC2CC2)nc(N[C@@H]2C[C@H](C(=O)Nc3ccccc3)[C@@H](O)[C@H]2O)c1-c1nc2c(C3CC3)nccc2s1 [Example 4950] | < 0.5 µM
11 | Cc1nc(N[C@H](C)c2ccc(OC(F)(F)F)cc2)nc(N[C@@H]2C[C@H](C(=O)Nc3ccccc3)[C@@H](O)[C@H]2O)c1-c1nc2c(C3CC3)nccc2s1 [Example 4951] | 0.5 to 5 µM
12 | Cc1cc2sc(-c3c(C)nc(N[C@H](C)C4CC4)nc3N[C@@H]3C[C@H](CO)[C@@H](O)[C@H]3O)nc2cn1 [Example 4952] | < 0.5 µM
13 | CO[C@H](C)CNc1nc(C)c(-c2nc3cnc(C)cc3s2)c(N[C@@H]2C[C@H](CO)[C@@H](O)[C@H]2O)n1 [Example 4953] | < 0.5 µM
14 | COCCNc1nc(C)c(-c2nc3c(C)nccc3s2)c(N[C@@H]2C[C@H](C(C)(C)F)[C@@H](O)[C@H]2O)n1 [Example 4954] | < 0.5 µM
15 | Cc1nc(N[C@H](C)c2ccc(OC(F)(F)F)cc2)nc(N[C@@H]2C[C@H](C(=O)Nc3ccncc3)[C@@H](O)[C@H]2O)c1-c1nc2c(C3CC3)nccc2s1 [Example 4955] | < 0.5 µM
16 | COCCNc1nc(C)c(-c2nc3c(C4CC4)nccc3s2)c(N[C@@H]2C[C@H](C(=O)Nc3ccncc3)[C@@H](O)[C@H]2O)n1 [Example 4956] | < 0.5 µM
17 | Cc1nc(NCC2CC2)nc(N[C@@H]2C[C@H](C(=O)Nc3ccncc3)[C@@H](O)[C@H]2O)c1-c1nc2c(C3CC3)nccc2s1 [Example 4957] | < 0.5 µM

Same assay, conditions: Hepatitis C virus; HCV Replicon assay, EC90 range, Table VI; read-out: EC90

Row | Compound | EC90
18 | Cc1ccc(S(=O)(=O)C[C@H]2C[C@@H](Nc3nc(NCCSC(C)(C)C)nc(C)c3-c3nc4c(C)nccc4s3)[C@H](O)[C@@H]2O)cc1F [Example 5001] | < 0.5 µM
19 | Cc1cc(S(=O)(=O)C[C@H]2C[C@@H](Nc3nc(NC4CC4)nc(C)c3-c3nc4c(C)nccc4s3)[C@H](O)[C@@H]2O)ccc1F [Example 5002] | < 0.5 µM
20 | Cc1ccc(S(=O)(=O)C[C@H]2C[C@@H](Nc3nc(NC4CC4)nc(C)c3-c3nc4c(C)nccc4s3)[C@H](O)[C@@H]2O)cc1F [Example 5003] | < 0.5 µM
21 | Cc1nc(NC2CC2)nc(N[C@@H]2C[C@H](CS(=O)(=O)c3ccc(F)c(F)c3)[C@@H](O)[C@H]2O)c1-c1nc2c(C)nccc2s1 [Example 5004] | < 0.5 µM
22 | COc1ccc(S(=O)(=O)C[C@H]2C[C@@H](Nc3nc(NC4CC4)nc(C)c3-c3nc4c(C)nccc4s3)[C@H](O)[C@@H]2O)cc1F [Example 5005] | < 0.5 µM
23 | Cc1cc(S(=O)(=O)C[C@H]2C[C@@H](Nc3nc(NCCSC(C)(C)C)nc(C)c3-c3nc4c(C)nccc4s3)[C@H](O)[C@@H]2O)ccc1F [Example 5006] | < 0.5 µM
24 | Cc1nc(NCCSC(C)(C)C)nc(N[C@@H]2C[C@H](CS(C)(=O)=O)[C@@H](O)[C@H]2O)c1-c1nc2c(C3CC3)nccc2s1 [Example 5007] | < 0.5 µM
25 | Cc1cc(S(=O)(=O)C[C@H]2C[C@@H](Nc3nc(NCC4CC4)nc(C)c3-c3nc4c(C)nccc4s3)[C@H](O)[C@@H]2O)ccc1F [Example 5008] | < 0.5 µM
26 | Cc1cc(S(=O)(=O)C[C@H]2C[C@@H](Nc3nc(NCC(F)(F)F)nc(C)c3-c3nc4c(C)nccc4s3)[C@H](O)[C@@H]2O)ccc1F [Example 5009] | < 0.5 µM
27 | Cc1cc(S(=O)(=O)C[C@H]2C[C@@H](Nc3nc(NCC(C)(C)C)nc(C)c3-c3nc4c(C)nccc4s3)[C@H](O)[C@@H]2O)ccc1F [Example 5010] | < 0.5 µM
28 | COCCNc1nc(C)c(-c2nc3c(C)nccc3s2)c(N[C@@H]2C[C@H](CS(=O)(=O)c3ccc(F)c(C)c3)[C@@H](O)[C@H]2O)n1 [Example 5011] | < 0.5 µM
29 | CO[C@H](C)CNc1nc(C)c(-c2nc3c(C)nccc3s2)c(N[C@@H]2C[C@H](CS(=O)(=O)c3ccc(F)c(C)c3)[C@@H](O)[C@H]2O)n1 [Example 5012] | < 0.5 µM
30 | COc1ccc(S(=O)(=O)C[C@H]2C[C@@H](Nc3nc(NCC4CC4)nc(C)c3-c3nc4c(C)nccc4s3)[C@H](O)[C@@H]2O)cc1F [Example 5013] | < 0.5 µM
31 | COc1ccc(S(=O)(=O)C[C@H]2C[C@@H](Nc3nc(NCCSC(C)(C)C)nc(C)c3-c3nc4c(C)nccc4s3)[C@H](O)[C@@H]2O)cc1F [Example 5014] | < 0.5 µM
32 | C#CCCNc1nc(C)c(-c2nc3c(C4CC4)nccc3s2)c(N[C@@H]2C[C@H](CS(C)(=O)=O)[C@@H](O)[C@H]2O)n1 [Example 5015] | < 0.5 µM
33 | CCc1nccc2sc(-c3c(C)nc(NC4CC4)nc3N[C@@H]3C[C@H](CS(=O)(=O)c4ccc(F)c(C)c4)[C@@H](O)[C@H]3O)nc12 [Example 5016] | < 0.5 µM
34 | CCc1nccc2sc(-c3c(C)nc(NCC4CC4)nc3N[C@@H]3C[C@H](CS(=O)(=O)c4ccc(F)c(C)c4)[C@@H](O)[C@H]3O)nc12 [Example 5017] | < 0.5 µM
35 | CCc1nccc2sc(-c3c(C)nc(NCC(C)(C)C)nc3N[C@@H]3C[C@H](CS(=O)(=O)c4ccc(F)c(C)c4)[C@@H](O)[C@H]3O)nc12 [Example 5018] | < 0.5 µM
36 | CCc1nccc2sc(-c3c(C)nc(NCC(F)(F)F)nc3N[C@@H]3C[C@H](CS(=O)(=O)c4ccc(F)c(C)c4)[C@@H](O)[C@H]3O)nc12 [Example 5019] | < 0.5 µM
37 | Cc1cc(S(=O)(=O)C[C@H]2C[C@@H](Nc3nc(N)nc(C)c3-c3nc4c(C)nccc4s3)[C@H](O)[C@@H]2O)ccc1F [Example 5020] | < 0.5 µM
38 | CCc1nccc2sc(-c3c(C)nc(N)nc3N[C@@H]3C[C@H](CS(=O)(=O)c4ccc(F)c(C)c4)[C@@H](O)[C@H]3O)nc12 [Example 5021] | < 0.5 µM
39 | CCNC(=O)N[C@H]1C[C@@H](Nc2nc(N[C@H](C)C3CC3)nc(C)c2-c2nc3c(C4CC4)nccc3s2)[C@H](O)[C@@H]1O [Example 5022] | < 0.5 µM
40 | Cc1nc(N[C@H](C)C2CC2)nc(N[C@@H]2C[C@H](NC(=O)NCc3ccc(F)cc3)[C@@H](O)[C@H]2O)c1-c1nc2c(C3CC3)nccc2s1 [Example 5023] | < 0.5 µM
